Measurements taken from US6425888B1, “Ocular treatment device” (R. P. Scherer Corporation, priority 1994, dated 2002).
Where a name gives a salt, the structure may show the parent alone.

Tested on: rabbits
Assay: Miotic response (pupil diameter) of rabbits after a single spray from the blister crushing device of FIG. 18
Format: in vivo, rabbit
Conditions: left eye, mean of 5 rabbits
Excerpt: The device of FIG. 18 was used in a study of the ocular response of rabbits to treatment according to the invention. The rabbits selected for the study were allowed to acclimatise for 4-5 days prior to treatment. They were subjected to manual restraining for 2 days prior to the study to condition them to the procedures involved in dosing. A device of the kind illustrated in FIG. 18 was then used to administer a single spray of isotonic 2% Pilocarpine hydrochloride (Pilocarpine HCl) solution to the corneal surface of the left eve of each of 5 rabbits, the right eyes remaining undosed. The following settings were used: 100 μm nozzle diameter 2.5 cm distance between nozzle tip and animal eye Sprays targeted towards the centre of the cornea of the animal eye The miotic response (reduction in pupil diameter) at various intervals following the application of the pilocarpine HCl solution was monitored under constant illumination using video photography. The pupil diameter of the left eye was expressed in proportion to the diameter of a fixed reference aperture situated at an equal distance from the video camera. The actual diameter was then calculated from the known diameter of the reference aperture.

CC[C@@H]1C(=O)OC[C@@H]1Cc1cncn1C [Pilocarpine HCl, Pilocarpine hydrochloride]
Pupil Diameter (+15 min after dose): 6.7 mm | Pupil Diameter (+30 min after dose): 6.8 mm | Pupil Diameter (+45 min after dose): 6.9 mm | Pupil Diameter (+1 hr after dose): 6.8 mm | Pupil Diameter (+1.5 hr after dose): 6.9 mm | Pupil Diameter (+2 hr after dose): 7.3 mm | Pupil Diameter (+2.5 hr after dose): 7.8 mm | Pupil Diameter (+3 hr after dose): 7.9 mm | Pupil Diameter (+3.5 hr after dose): 8.0 mm | Pupil Diameter (+4 hr after dose): 7.8 mm | Pupil Diameter (Dose (0 min), single spray of isotonic 2% solution to cornea): 7.8 mm
